Measured values published in the NIST ThermoML archive (doi:10.1016/j.tca.2012.02.020).
± gives the expanded uncertainty stated by the source.

Legend:
[1] = Crystal; visual observation
[2] = Molar enthalpy of transition or fusion; conditions: Crystal; DSC

Row | SMILES | Normal melting temperature [1] [°C] | Molar enthalpy of transition or fusion [2] [kJ/mol]
1 | Clc1ccc(Br)cc1 [1-bromo-4-chlorobenzene] | 65.00 ± 1 | 19.9 ± 0.6
2 | O=Cc1cccc(O)c1 [3-hydroxybenzaldehyde] | 103.00 ± 1 | 24.1 ± 0.7
3 | Nc1cccc(O)c1 [3-hydroxybenzenamine] | 123.00 ± 1 | 27.6 ± 0.8
4 | c1ccc(-c2ccccc2)cc1 [biphenyl] | 70.50 ± 1 | 19.3 ± 0.6
